Test results from ChEMBL document CHEMBL3861944 (Medchemcomm, 2016).

What was measured:
ASPC1 [1] = experiment: Pro-apoptotic activity in human AsPC1 cells assessed as early apoptotic cells at 50 uM after 24 hrs by annexin V/propidium iodide staining-based flow cytometric method (reference value: 0.8 +/- 0.1%); assay type: functional
ASPC1 [2] = experiment: Pro-apoptotic activity in human AsPC1 cells after 24 hrs by annexin V/propidium iodide staining-based flow cytometric method; assay type: functional; settings: ASPC1, 24 h, read-out: ED50 (the source's name)
[3] = Cell cycle arrest in human THP1 cells assessed as accumulation at G0/G1 phase at 0.5 uM after 24 hrs by flow cytometric method (reference value: 51 +/- 6%); assay type: functional, cell-based; settings: THP-1
THP-1 [4] = experiment: Pro-apoptotic activity in human THP1 cells assessed as necrotic cells at 0.75 uM after 24 hrs by annexin V/propidium iodide staining-based flow cytometric method relative to control; assay type: functional
THP-1 [5] = experiment: Pro-apoptotic activity in human THP1 cells assessed as early apoptotic cells at 3 uM after 24 hrs by annexin V/propidium iodide staining-based flow cytometric method (reference value: 0.4 +/- 0.1%); assay type: functional
THP-1 [6] = experiment: Pro-apoptotic activity in human THP1 cells assessed as late apoptotic cells at 3 uM after 24 hrs by annexin V/propidium iodide staining-based flow cytometric method (reference value: 0.4 +/- 0.1%); assay type: functional
THP-1 [7] = experiment: Pro-apoptotic activity in human THP1 cells assessed as late apoptotic cells at 10 uM after 24 hrs by annexin V/propidium iodide staining-based flow cytometric method (reference value: 0.4 +/- 0.1%); assay type: functional
THP-1 [8] = experiment: Pro-apoptotic activity in human THP1 cells assessed as necrotic cells at 30 uM after 24 hrs by annexin V/propidium iodide staining-based flow cytometric method relative to control; assay type: functional
ASPC1 [9] = experiment: Pro-apoptotic activity in human AsPC1 cells assessed as early apoptotic cells at 1 uM after 24 hrs by annexin V/propidium iodide staining-based flow cytometric method (reference value: 0.8 +/- 0.1%); assay type: functional
ASPC1 [10] = experiment: Pro-apoptotic activity in human AsPC1 cells assessed as late apoptotic cells at 1 uM after 24 hrs by annexin V/propidium iodide staining-based flow cytometric method (reference value: 0.8 +/- 0.1%); assay type: functional
ASPC1 [11] = experiment: Pro-apoptotic activity in human AsPC1 cells assessed as early apoptotic cells at 30 uM after 24 hrs by annexin V/propidium iodide staining-based flow cytometric method (reference value: 0.8 +/- 0.1%); assay type: functional
ASPC1 [12] = experiment: Pro-apoptotic activity in human AsPC1 cells assessed as late apoptotic cells at 30 uM after 24 hrs by annexin V/propidium iodide staining-based flow cytometric method (reference value: 0.8 +/- 0.1%); assay type: functional
ASPC1 [13] = experiment: Pro-apoptotic activity in human AsPC1 cells assessed as necrotic cells at 30 uM after 24 hrs by annexin V/propidium iodide staining-based flow cytometric method (reference value: 2.1 +/- 0.4%); assay type: functional
ASPC1 [14] = experiment: Pro-apoptotic activity in human AsPC1 cells assessed as necrotic cells at 50 uM after 24 hrs by annexin V/propidium iodide staining-based flow cytometric method (reference value: 2.1 +/- 0.4%); assay type: functional
ASPC1 [15] = experiment: Pro-apoptotic activity in human AsPC1 cells assessed as early apoptotic cells at 75 uM after 24 hrs by annexin V/propidium iodide staining-based flow cytometric method (reference value: 0.8 +/- 0.1%); assay type: functional
ASPC1 [16] = experiment: Pro-apoptotic activity in human AsPC1 cells assessed as late apoptotic cells at 75 uM after 24 hrs by annexin V/propidium iodide staining-based flow cytometric method (reference value: 0.8 +/- 0.1%); assay type: functional
ASPC1 [17] = experiment: Pro-apoptotic activity in human AsPC1 cells assessed as necrotic cells at 75 uM after 24 hrs by annexin V/propidium iodide staining-based flow cytometric method (reference value: 2.1 +/- 0.4%); assay type: functional
ASPC1 [18] = experiment: Pro-apoptotic activity in human AsPC1 cells assessed as early apoptotic cells at 100 uM after 24 hrs by annexin V/propidium iodide staining-based flow cytometric method (reference value: 0.8 +/- 0.1%); assay type: functional
[19] = Cell cycle arrest in human THP1 cells assessed as accumulation at G2/M phase at 0.75 uM after 24 hrs by flow cytometric method (reference value: 32 +/- 1%); assay type: functional, cell-based; settings: THP-1
[20] = Cell cycle arrest in human THP1 cells assessed as accumulation at G0/G1 phase at 1 uM after 24 hrs by flow cytometric method (reference value: 51 +/- 6%); assay type: functional, cell-based; settings: THP-1
[21] = Cell cycle arrest in human THP1 cells assessed as accumulation at G2/M phase at 1 uM after 24 hrs by flow cytometric method (reference value: 32 +/- 1%); assay type: functional, cell-based; settings: THP-1
[22] = Cell cycle arrest in human THP1 cells assessed as accumulation at G0/G1 phase at 3 uM after 24 hrs by flow cytometric method (reference value: 51 +/- 6%); assay type: functional, cell-based; settings: THP-1
[23] = Cell cycle arrest in human THP1 cells assessed as accumulation at S phase at 3 uM after 24 hrs by flow cytometric method (reference value: 16 +/- 2%); assay type: functional, cell-based; settings: THP-1
[24] = Cell cycle arrest in human THP1 cells assessed as accumulation at G0/G1 phase at 10 uM after 24 hrs by flow cytometric method (reference value: 51 +/- 6%); assay type: functional, cell-based; settings: THP-1
[25] = Cell cycle arrest in human THP1 cells assessed as accumulation at G0/G1 phase at 30 uM after 24 hrs by flow cytometric method (reference value: 51 +/- 6%); assay type: functional, cell-based; settings: THP-1
[26] = Cell cycle arrest in human THP1 cells assessed as accumulation at S phase at 30 uM after 24 hrs by flow cytometric method (reference value: 16 +/- 2%); assay type: functional, cell-based; settings: THP-1
[27] = Cell cycle arrest in human THP1 cells assessed as accumulation at G2/M phase at 30 uM after 24 hrs by flow cytometric method (reference value: 32 +/- 1%); assay type: functional, cell-based; settings: THP-1
[28] = Cell cycle arrest in human AsPC1 cells assessed as accumulation at G0/G1 phase at 1 uM after 24 hrs by flow cytometric method (reference value: 48 +/- 7%); assay type: functional, cell-based
[29] = Cell cycle arrest in human AsPC1 cells assessed as accumulation at S phase at 10 uM after 24 hrs by flow cytometric method (reference value: 23 +/- 3%); assay type: functional, cell-based
[30] = Cell cycle arrest in human AsPC1 cells assessed as accumulation at G0/G1 phase at 30 uM after 24 hrs by flow cytometric method (reference value: 48 +/- 7%); assay type: functional, cell-based
[31] = Cell cycle arrest in human AsPC1 cells assessed as accumulation at G2/M phase at 30 uM after 24 hrs by flow cytometric method (reference value: 29 +/- 5%); assay type: functional, cell-based
[32] = Cell cycle arrest in human AsPC1 cells assessed as accumulation at G0/G1 phase at 50 uM after 24 hrs by flow cytometric method (reference value: 48 +/- 7%); assay type: functional, cell-based
[33] = Cell cycle arrest in human AsPC1 cells assessed as accumulation at G0/G1 phase at 75 uM after 24 hrs by flow cytometric method (reference value: 48 +/- 7%); assay type: functional, cell-based
[34] = Cell cycle arrest in human AsPC1 cells assessed as accumulation at S phase at 75 uM after 24 hrs by flow cytometric method (reference value: 23 +/- 3%); assay type: functional, cell-based
[35] = Cell cycle arrest in human AsPC1 cells assessed as accumulation at G2/M phase at 100 uM after 24 hrs by flow cytometric method (reference value: 29 +/- 5%); assay type: functional, cell-based

Question: Which results are given for `NC(=[Se])N/N=C/c1cccc2cccnc12`?
Answer: Activity (ASPC1 [1]): 0.4%; EC50 (ASPC1 [2]): > 100 µM; Activity [3]: 50%; Activity (THP-1 [4]): 0.7%; Activity (THP-1 [5]): 2.2%; Activity (THP-1 [6]): 3%; Activity (THP-1 [7]): 49%; Activity (THP-1 [8]): 4%; Activity (ASPC1 [9]): 0.2%; Activity (ASPC1 [10]): 0.4%; Activity (ASPC1 [11]): 0%; Activity (ASPC1 [12]): 1.1%; Activity (ASPC1 [13]): 1.9%; Activity (ASPC1 [14]): 1.7%; Activity (ASPC1 [15]): 0.6%; Activity (ASPC1 [16]): 4.1%; Activity (ASPC1 [17]): 4.1%; Activity (ASPC1 [18]): 5.7%; Activity [19]: 34%; Activity [20]: 43%; Activity [21]: 31%; Activity [22]: 43%; Activity [23]: 27%; Activity [24]: 45%; Activity [25]: 43%; Activity [26]: 32%; Activity [27]: 26%; Activity [28]: 53.8%; Activity [29]: 21.3%; Activity [30]: 69.2%; Activity [31]: 8.2%; Activity [32]: 65.4%; Activity [33]: 63.3%; Activity [34]: 22.3%; Activity [35]: 17%
